# Data: patent US7534814B2, “Mutilin derivatives and their use as antibacterials” (Nabriva Therapeutics AG, priority 1999, dated 2009)
# Read-outs that look alike come from different tables or passages of the source.
# How the values were obtained:
# Format in all cases: cell-based
# [1] = tested on: Staphylococcus aureus MRSA; test: MIC in Agar Dilution Test or Micro Dilution Test (NCCLS M7-A4)
# Source text: (§1) For example, the active compounds of the present invention show antimicrobial, e.g. antibacterial activity against gram negative bacterias, such as Escherichia coli; and against gram positive bacteria, such as Staphylococcus aureus, Streptococcus pyogenes, Streptococcus pneumonlae, Mycoplasms, Chlamydia and obligatory anaerobes, e.g. Bacteroides fragilis; in vitro in the Agar Dilution Test or Microdilution Test according to National Commitee for Clinical Laboratory Standards (NCCLS) 1997, Document M7-A4 Vol.17, No. 2: “Methods for dilution Antimicrobial Susceptibility Tests for Bacteria that Grow Aerobically—Fourth Edition, Approved Standard”; and e.g. in vivo in systemic infections in mice.
# (§2) The active compounds of the invention show an surprising overall activity spectrum. For example, it has been determined that the active compounds of the present invention show surprising activity in vitro against Enterococcus faecium, including vancomycin-resistant strains; against Staphylococcus aureus including methicillin sensitive (MSSA) and methicdllin-resistant (MRSA) strains; and against Streptococcus pneumoniae including penicillin-resistant strains; e.g. in the Agar Dilution Test or in the Micro Dilution Test in Mueller-Hinton agar or Mueller-Hinton broth with or without supplements according to the approved standard reference methods of the National Committee for Clinical Laboratory Standards (NCCLS), Document M7-A4 for aerobic bacteria.
# [2] = tested on: Staphylococcus aureus MSSA; test: as above; settings: examples tested in the form of a hydrochloride
# Source text: as §1, §2
# [3] = tested on: penicillin-resistant Streptococcus pneumoniae; test: as above
# Source text: as §1, §2
# [4] = tested on: Enterococcus faecalis strain ATCC 29212; test: MIC in Agar Dilution Test or Microdilution Test; settings: examples tested in the form of an hydrochloride
# Source text: as §1
smiles,measurement,setting,value
C=C[C@]1(C)C[C@@H](OC(=O)CSc2cccc(NC(=O)[C@H]3CCCCN3)c2)[C@]2(C)[C@H](C)CC[C@]3(CCC(=O)[C@H]32)[C@@H](C)[C@@H]1O [Example 1],MIC,[1],≤ 0.0125 µg/mL
same,MIC,[2],ca. 0.025 μg/ml
"C=C[C@]1(C)C[C@@H](OC(=O)CSc2cccc(N)c2)[C@]2(C)[C@H](C)CC[C@]3(CCC(=O)[C@H]32)[C@@H](C)[C@@H]1O [Example 52, 14-O-[(3-Amino-phenylsulfanyl)acetyl]mutilin]",MIC,[2],ca. 0.025 μg/ml
CC[C@H]1OC(=O)[C@H](C)[C@@H](O[C@H]2C[C@@](C)(OC)[C@@H](O)[C@H](C)O2)[C@H](C)[C@@H](O[C@@H]2O[C@H](C)C[C@H](N(C)C)[C@H]2O)[C@](C)(O)C[C@@H](C)CN(C)[C@H](C)[C@@H](O)[C@]1(C)O [azithromycin],MIC,[1]; read-out: MIC,> 25.6 µg/mL
same,MIC,[3],> 2.56 µg/mL
same,MIC,[2]; read-out: MIC,~1.6 µg/mL
CC[C@H]1OC(=O)[C@H](C)[C@@H](O[C@H]2C[C@@](C)(OC)[C@@H](O)[C@H](C)O2)[C@H](C)[C@@H](O[C@@H]2O[C@H](C)C[C@H](N(C)C)[C@H]2O)[C@](C)(O)C[C@@H](C)C(=O)[C@H](C)[C@@H](O)[C@]1(C)O [erythromycin A],MIC,[4],ca. 1.6 μg/ml
